Source: publication PMC5423977, “Safety, pharmacokinetics, and pharmacodynamics of BMS-986142, a novel reversible BTK inhibitor, in healthy participants” (European Journal of Clinical Pharmacology, 2017)

What was measured:
[1] = Safety and tolerability (adverse events), Study 1 MAD in healthy participants; assay type: in vivo, human
[2] = 12-lead ECG, baseline-corrected QTcF; assay type: in vivo, human; conditions: for Maximum change from baseline in QTcF interval >30-≤60 msec / Maximum change from baseline in QTcF interval >60 msec / Maximum change from baseline in QTcF interval ≤30 msec: n = 6
Description: Participants were monitored for adverse events (AEs) throughout the study. Clinical laboratory tests, vital sign measurements, 12-lead ECGs, and physical examinations were performed at selected times throughout the dosing interval. Safety data was recorded in the participants’ medical records, and assessments were performed for emergent AEs or serious AEs (SAEs). For all AEs, causal relationship to the study drug was determined by an investigator. QT signals obtained from 12-lead ECGs were corrected by heart rate using Fridericia’s formula (QTcF). Baseline-corrected QTcF (∆QTcF) were evaluated to determine QT elongation.

[3] = Study 1 MAD group, BMS-986142-treated
[4] = Study 1 MAD, all BMS-986142 doses, n = 24

## Cc1c(-c2c(F)cc(C(N)=O)c3[nH]c4c(c23)CC[C@H](C(C)(C)O)C4)cccc1-n1c(=O)c2cccc(F)c2n(C)c1=O [BMS-986142, 6-fluoro-5-(R)-(3-(S)-(8-fluoro-1-methyl-2,4-dioxo-1,2-dihydroquinazolin-3(4H)-yl)-2-methylphenyl)-2-(S)-(2-hydroxypropan-2-yl)-2,3,4,9-tetrahydro-1H-carbazole-8-carboxamide]
[1]; MAD 25 mg QD, n = 6
  AE SOC: Ear and labyrinth disorders: 0 n (%)
  AE SOC: Eye disorders: 1 (16.7) n (%)
  AE SOC: Gastrointestinal Disorders: 0 n (%)
  AE SOC: Infections and infestations: 0 n (%)
  AE SOC: Injury, poisoning and procedural complications: 1 (16.7) n (%)
  AE SOC: Investigations: 0 n (%)
  AE SOC: Musculoskeletal and connective tissue disorders: 0 n (%)
  AE SOC: Nervous system disorders: 0 n (%)
  AE SOC: Psychiatric disorders: 0 n (%)
  AE SOC: Respiratory, thoracic and mediastinal disorders: 1 (16.7) n (%)
  AE SOC: Skin and subcutaneous tissue disorders: 0 n (%)
  AE: Abdominal pain: 0 n (%)
  AE: Back pain: 0 n (%)
  AE: Blood creatinine phosphokinase increased: 0 n (%)
  AE: Cerumen impaction: 0 n (%)
  AE: Cough: 1 (16.7) n (%)
  AE: Diarrhoea: 0 n (%)
  AE: Eye pain: 1 (16.7) n (%)
  AE: Haemoptysis: 0 n (%)
  AE: Headache: 0 n (%)
  AE: Psychotic disorder: 0 n (%)
  AE: Rash: 0 n (%)
  AE: Somnolence: 0 n (%)
  AE: Syncope: 0 n (%)
  AE: Thermal burn: 1 (16.7) n (%)
  AE: Throat irritation: 0 n (%)
  AE: Upper respiratory tract infection: 0 n (%)
  Total subjects with an event: 2 (33.3) n (%)
[1]; MAD 75 mg QD, n = 6
  AE SOC: Ear and labyrinth disorders: 1 (16.7) n (%)
  AE SOC: Eye disorders: 0 n (%)
  AE SOC: Gastrointestinal Disorders: 2 (33.3) n (%)
  AE SOC: Infections and infestations: 0 n (%)
  AE SOC: Injury, poisoning and procedural complications: 0 n (%)
  AE SOC: Investigations: 0 n (%)
  AE SOC: Musculoskeletal and connective tissue disorders: 0 n (%)
  AE SOC: Nervous system disorders: 1 (16.7) n (%)
  AE SOC: Psychiatric disorders: 1 (16.7) n (%)
  AE SOC: Respiratory, thoracic and mediastinal disorders: 1 (16.7) n (%)
  AE SOC: Skin and subcutaneous tissue disorders: 0 n (%)
  AE: Abdominal pain: 1 (16.7) n (%)
  AE: Back pain: 0 n (%)
  AE: Blood creatinine phosphokinase increased: 0 n (%)
  AE: Cerumen impaction: 1 (16.7) n (%)
  AE: Cough: 0 n (%)
  AE: Diarrhoea: 1 (16.7) n (%)
  AE: Eye pain: 0 n (%)
  AE: Haemoptysis: 1 (16.7) n (%)
  AE: Headache: 1 (16.7) n (%)
  AE: Psychotic disorder: 1 (16.7) n (%)
  AE: Rash: 0 n (%)
  AE: Somnolence: 0 n (%)
  AE: Syncope: 0 n (%)
  AE: Thermal burn: 0 n (%)
  AE: Throat irritation: 1 (16.7) n (%)
  AE: Upper respiratory tract infection: 0 n (%)
  Total subjects with an event: 4 (66.7) n (%)
[1]; MAD 200 mg QD, n = 6
  AE SOC: Ear and labyrinth disorders: 0 n (%)
  AE SOC: Eye disorders: 0 n (%)
  AE SOC: Gastrointestinal Disorders: 0 n (%)
  AE SOC: Infections and infestations: 1 (16.7) n (%)
  AE SOC: Injury, poisoning and procedural complications: 0 n (%)
  AE SOC: Investigations: 0 n (%)
  AE SOC: Musculoskeletal and connective tissue disorders: 1 (16.7) n (%)
  AE SOC: Nervous system disorders: 0 n (%)
  AE SOC: Psychiatric disorders: 0 n (%)
  AE SOC: Respiratory, thoracic and mediastinal disorders: 0 n (%)
  AE SOC: Skin and subcutaneous tissue disorders: 0 n (%)
  AE: Abdominal pain: 0 n (%)
  AE: Back pain: 1 (16.7) n (%)
  AE: Blood creatinine phosphokinase increased: 0 n (%)
  AE: Cerumen impaction: 0 n (%)
  AE: Cough: 0 n (%)
  AE: Diarrhoea: 0 n (%)
  AE: Eye pain: 0 n (%)
  AE: Haemoptysis: 0 n (%)
  AE: Headache: 0 n (%)
  AE: Psychotic disorder: 0 n (%)
  AE: Rash: 0 n (%)
  AE: Somnolence: 0 n (%)
  AE: Syncope: 0 n (%)
  AE: Thermal burn: 0 n (%)
  AE: Throat irritation: 0 n (%)
  AE: Upper respiratory tract infection: 1 (16.7) n (%)
  Total subjects with an event: 1 (16.7) n (%)
[1]; MAD 350 mg QD, n = 6
  AE SOC: Ear and labyrinth disorders: 0 n (%)
  AE SOC: Eye disorders: 0 n (%)
  AE SOC: Gastrointestinal Disorders: 0 n (%)
  AE SOC: Infections and infestations: 0 n (%)
  AE SOC: Injury, poisoning and procedural complications: 0 n (%)
  AE SOC: Investigations: 0 n (%)
  AE SOC: Musculoskeletal and connective tissue disorders: 0 n (%)
  AE SOC: Nervous system disorders: 0 n (%)
  AE SOC: Psychiatric disorders: 0 n (%)
  AE SOC: Respiratory, thoracic and mediastinal disorders: 0 n (%)
  AE SOC: Skin and subcutaneous tissue disorders: 1 (16.7) n (%)
  AE: Abdominal pain: 0 n (%)
  AE: Back pain: 0 n (%)
  AE: Blood creatinine phosphokinase increased: 0 n (%)
  AE: Cerumen impaction: 0 n (%)
  AE: Cough: 0 n (%)
  AE: Diarrhoea: 0 n (%)
  AE: Eye pain: 0 n (%)
  AE: Haemoptysis: 0 n (%)
  AE: Headache: 0 n (%)
  AE: Psychotic disorder: 0 n (%)
  AE: Rash: 1 (16.7) n (%)
  AE: Somnolence: 0 n (%)
  AE: Syncope: 0 n (%)
  AE: Thermal burn: 0 n (%)
  AE: Throat irritation: 0 n (%)
  AE: Upper respiratory tract infection: 0 n (%)
  Total subjects with an event: 1 (16.7) n (%)
[1]; MAD any dose, n = 24
  AE SOC: Ear and labyrinth disorders: 1 (4.2) n (%)
  AE SOC: Eye disorders: 1 (4.2) n (%)
  AE SOC: Gastrointestinal Disorders: 2 (8.3) n (%)
  AE SOC: Infections and infestations: 1 (4.2) n (%)
  AE SOC: Injury, poisoning and procedural complications: 1 (4.2) n (%)
  AE SOC: Investigations: 0 n (%)
  AE SOC: Musculoskeletal and connective tissue disorders: 1 (4.2) n (%)
  AE SOC: Nervous system disorders: 1 (4.2) n (%)
  AE SOC: Psychiatric disorders: 1 (4.2) n (%)
  AE SOC: Respiratory, thoracic and mediastinal disorders: 2 (8.3) n (%)
  AE SOC: Skin and subcutaneous tissue disorders: 1 (4.2) n (%)
  AE: Abdominal pain: 1 (4.2) n (%)
  AE: Back pain: 1 (4.2) n (%)
  AE: Blood creatinine phosphokinase increased: 0 n (%)
  AE: Cerumen impaction: 1 (4.2) n (%)
  AE: Cough: 1 (4.2) n (%)
  AE: Diarrhoea: 1 (4.2) n (%)
  AE: Eye pain: 1 (4.2) n (%)
  AE: Haemoptysis: 1 (4.2) n (%)
  AE: Headache: 1 (4.2) n (%)
  AE: Psychotic disorder: 1 (4.2) n (%)
  AE: Rash: 1 (4.2) n (%)
  AE: Somnolence: 0 n (%)
  AE: Syncope: 0 n (%)
  AE: Thermal burn: 1 (4.2) n (%)
  AE: Throat irritation: 1 (4.2) n (%)
  AE: Upper respiratory tract infection: 1 (4.2) n (%)
  Total subjects with an event: 8 (33.3) n (%)
[1]; [3]
  Number of AEs reported: 13 AEs
  Participants with AEs: 8 participants
[1]; [4]
  AE: Cough: 1 (4.2) n (%)
  AE: Diarrhea: 1 (4.2) n (%)
  AE: Dizziness: 0 n (%)
  AE: Headache/tension headache: 1 (4.2) n (%)
  AE: Nausea: 0 n (%)
  AE: Thermal burns: 1 (4.2) n (%)
  AE: Upper respiratory tract infection: 1 (4.2) n (%)
  Subjects with AEs: 8 (33.3) n (%)
[2]; MAD 25 mg
  Maximum change from baseline in QTcF interval >30-≤60 msec: 0 N (%)
  Maximum change from baseline in QTcF interval >60 msec: 0 N (%)
  Maximum change from baseline in QTcF interval ≤30 msec: 6 (100) N (%)
[2]; MAD 75 mg
  Maximum change from baseline in QTcF interval >30-≤60 msec: 0 N (%)
  Maximum change from baseline in QTcF interval >60 msec: 0 N (%)
  Maximum change from baseline in QTcF interval ≤30 msec: 6 (100) N (%)
[2]; MAD 200 mg
  Maximum change from baseline in QTcF interval >30-≤60 msec: 0 N (%)
  Maximum change from baseline in QTcF interval >60 msec: 0 N (%)
  Maximum change from baseline in QTcF interval ≤30 msec: 6 (100) N (%)
[2]; MAD 350 mg
  Maximum change from baseline in QTcF interval >30-≤60 msec: 0 N (%)
  Maximum change from baseline in QTcF interval >60 msec: 0 N (%)
  Maximum change from baseline in QTcF interval ≤30 msec: 6 (100) N (%)
[2]; SAD 5 mg
  Maximum change from baseline in QTcF interval >30-≤60 msec: 0 N (%)
  Maximum change from baseline in QTcF interval >60 msec: 0 N (%)
  Maximum change from baseline in QTcF interval ≤30 msec: 6 (100) N (%)
[2]; SAD 15 mg
  Maximum change from baseline in QTcF interval >30-≤60 msec: 0 N (%)
  Maximum change from baseline in QTcF interval >60 msec: 0 N (%)
  Maximum change from baseline in QTcF interval ≤30 msec: 6 (100) N (%)
[2]; SAD 50 mg
  Maximum change from baseline in QTcF interval >30-≤60 msec: 0 N (%)
  Maximum change from baseline in QTcF interval >60 msec: 0 N (%)
  Maximum change from baseline in QTcF interval ≤30 msec: 6 (100) N (%)
[2]; SAD 100 mg
  Maximum change from baseline in QTcF interval >30-≤60 msec: 0 N (%)
  Maximum change from baseline in QTcF interval >60 msec: 0 N (%)
  Maximum change from baseline in QTcF interval ≤30 msec: 6 (100) N (%)
[2]; SAD 300 mg
  Maximum change from baseline in QTcF interval >30-≤60 msec: 0 N (%)
  Maximum change from baseline in QTcF interval >60 msec: 0 N (%)
  Maximum change from baseline in QTcF interval ≤30 msec: 6 (100) N (%)
[2]; SAD 900 mg
  Maximum change from baseline in QTcF interval >30-≤60 msec: 0 N (%)
  Maximum change from baseline in QTcF interval >60 msec: 0 N (%)
  Maximum change from baseline in QTcF interval ≤30 msec: 6 (100) N (%)
[2]; SAD and MAD
  Increase from baseline in maximum post-dose QTcF: No participants showed greater than 30 ms increase from baseline
